Laboratory results published in patent publication US20250074911A1, “MACROCYCLIC BTK INHIBITORS” (Crossfire Oncology Holding B.V., priority 2021, published 2025).
Where “and” joins values, the source holds several entries; their conditions need not be identical. Equal values may be shown once.

How the values were obtained:
[1] = target: full-length wt-BTK enzyme (Homo sapiens (Human), UniProt Q06187); assay: Biochemical kinase assay wt-BTK (IMAP)
In short: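 IMAP fluorescence polarization assay: 1.2 nM enzyme pre-incubated 1 h with compound at room temperature, then 50 nM fluorescein-labeled MBP-derived peptide and 4 μM ATP added. Reaction ran 2 h at room temperature in the dark before quenching with IMAP binding solution.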

[2] = target: full-length BTK C481S enzyme (Homo sapiens (Human), UniProt Q06187, C481S); assay: Biochemical kinase assay BTK C481S (IMAP)
Chain of full-length BTK C481S enzyme (Q06187 whole entry C481S): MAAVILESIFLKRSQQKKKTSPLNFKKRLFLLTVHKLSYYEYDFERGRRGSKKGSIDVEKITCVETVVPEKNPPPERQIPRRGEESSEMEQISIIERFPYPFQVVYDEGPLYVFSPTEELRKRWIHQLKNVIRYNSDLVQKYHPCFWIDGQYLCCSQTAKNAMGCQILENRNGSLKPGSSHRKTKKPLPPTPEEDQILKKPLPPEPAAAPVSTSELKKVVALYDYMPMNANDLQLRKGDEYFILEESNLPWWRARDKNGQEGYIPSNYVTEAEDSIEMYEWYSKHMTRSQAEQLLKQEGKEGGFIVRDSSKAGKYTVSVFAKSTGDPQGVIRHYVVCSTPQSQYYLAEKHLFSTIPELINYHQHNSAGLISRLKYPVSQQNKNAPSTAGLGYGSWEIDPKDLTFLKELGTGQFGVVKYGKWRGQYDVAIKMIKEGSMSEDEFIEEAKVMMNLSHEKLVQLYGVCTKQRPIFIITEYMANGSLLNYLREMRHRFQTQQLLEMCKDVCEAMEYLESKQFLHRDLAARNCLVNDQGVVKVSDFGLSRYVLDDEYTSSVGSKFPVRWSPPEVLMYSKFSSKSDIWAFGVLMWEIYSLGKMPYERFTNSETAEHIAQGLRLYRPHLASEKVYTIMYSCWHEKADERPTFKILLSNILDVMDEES
In short: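 Full-length BTK C481S (1.2 nM) was pre-incubated with compound for 1 h at room temperature in the dark, then reacted with fluorescein-labelled MBP-derived peptide (50 nM) and ATP (7 μM) for 2 h. Reactions were quenched with IMAP binding solution, and IC50 values were derived from fluorescence polarization.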

[3] = test system: wt-REC-1 mantle cell lymphoma cells; assay: Cell proliferation assay wt-REC-1 (ATPlite, 72 hours); type: cell-based; conditions: 72 h; read-out: IC50 wt-REC-1
In short: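 Luminescent viability read over 72 h, start-of-incubation signal recorded separately to separate growth from cell death. Percentage growth referenced to compound-free 0.3% DMSO wells; IC50 from 4-parameter logistic fit.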

[4] = test system: REC-1 T474I cell lines; assay: Cell proliferation assay REC-1 BTK T474I knock-in cells (ATPlite, 72 hours); type: cell-based; conditions: Homo sapiens, Rec1; 72 hours; read-out: IC50 REC-1 T474I
In short: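 REC-1 cells carrying CRISPR knock-in mutant BTK, single-cell cloned and sequence-confirmed, were exposed to compound for 72 h and read by ATPlite luminescence. Percentage growth was calculated against the signal at the start of incubation and against untreated 0.3% DMSO wells as maximum growth.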

[5] = target: wt-BTK (Homo sapiens (Human), UniProt Q06187); assay: Binding kinetics measurements (Surface Plasmon Resonance) on wt-BTK; conditions: for Kd: binding affinity by Surface Plasmon Resonance (SPR); for Tau (h) wt-BTK (Act): target residence time, SPR
Chain of wt-BTK (Q06187 whole entry): as the sequence (Q06187 whole entry C481S) above, with S481C counted along it
In short: (§1)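 SPR on biotinylated wild-type or mutant human BTK captured on streptavidin chips (immobilized at 4° C, assay at 22° C), buffer with 1% DMSO, 30 μl/min. Single-cycle kinetics, five injections of 3.16-316 nM compound; double-referenced sensorgrams fitted (two-state model for induced fit), duplicate ka, kd, KD geometrically averaged.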

[6] = target: BTK C481S (Homo sapiens (Human), UniProt Q06187, C481S); assay: Binding kinetics measurements (Surface Plasmon Resonance) on BTK C481S; conditions: for Kd: binding affinity by Surface Plasmon Resonance (SPR); for Tau (h) BTK C418S (Act): target residence time for BTK C481S, SPR
Chain of BTK C481S (Q06187 whole entry C481S): as the sequence (Q06187 whole entry C481S) above
In short: as §1

[7] = target: BTK T316A (Homo sapiens (Human), UniProt Q06187, T316A); assay: Binding kinetics measurements (Surface Plasmon Resonance) on BTK T316A; conditions: for Kd: binding affinity by Surface Plasmon Resonance (SPR); for Tau (h) BTK T316A (Act): target residence time, SPR
Chain of BTK T316A (Q06187 whole entry T316A): as the sequence (Q06187 whole entry C481S) above, with T316A, S481C counted along it
In short: as §1

[8] = target: BTK T474I (Homo sapiens (Human), UniProt Q06187, T474I); assay: Binding kinetics measurements (Surface Plasmon Resonance) on BTK T474I; conditions: for Kd: binding affinity by Surface Plasmon Resonance (SPR); for Tau (h) BTK T474I (Act): target residence time, SPR
Chain of BTK T474I (Q06187 whole entry T474I): as the sequence (Q06187 whole entry C481S) above, with T474I, S481C counted along it
In short: as §1

[9] = target: BTK T474S (Homo sapiens (Human), UniProt Q06187, T474S); assay: Binding kinetics measurements (Surface Plasmon Resonance) on BTK T474S; conditions: for residence time: SPR binding kinetics, BTK T474S, read-out: Tau (h) BTK T474S (Act), target residence time (converted); for Kd: binding affinity by Surface Plasmon Resonance (SPR)
Chain of BTK T474S (Q06187 whole entry T474S): as the sequence (Q06187 whole entry C481S) above, with T474S, S481C counted along it
In short: as §1

[10] = test system: wt-TMD8 diffuse large B-cell lymphoma cells; assay: Cell proliferation assay wt-TMD8 (ATPlite, 120 hours); type: cell-based; conditions: B-cell; wt-TMD8 cells, 120 hours, ATPlite; read-out: IC50 wt-TMD8
In short: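 wt-TMD8 DLBCL cells, 1600 per well in RPMI-1640 with 10% FBS, rested ≥5 h then exposed to compound for 120 h at 37° C, 5% CO2. Viability read by ATPlite luminescence; percentage growth calculated relative to start-of-incubation signal and untreated 0.3% DMSO maximum growth.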

Chain of full-length wt-BTK enzyme (Q06187 whole entry): as the sequence (Q06187 whole entry C481S) above, with S481C counted along it

Nc1ncc2n3c(nc(-c4ccc(C(=O)Nc5cc(C(F)(F)F)ccn5)cc4)c13)[C@@H]1CCC[C@H](C1)NC(=O)CCCCC/C=C/2 [Example 131]
IC50 [1]: < 5 nM
IC50 [2]: < 5 nM
IC50 [3]: < 100 nM
IC50 [4]: < 100 nM
Kd [5]: < 5 nM
Tau (h) wt-BTK (Act) [5]: 3.70 h
Kd [6]: < 5 nM
Tau (h) BTK C418S (Act) [6]: 5.25 h
Kd [7]: < 5 nM
Tau (h) BTK T316A (Act) [7]: 3.44 h
Kd [8]: < 2 nM
Tau (h) BTK T474I (Act) [8]: 2.37 h
residence time [9]: 9.61 h
Kd [9]: < 3 nM
IC50 [10]: < 100 nM

COc1ccc(F)cc1C(=O)NCc1ccc(-c2nn3c4c(cnc(N)c24)/C=C/CCCCCC(=O)N[C@H](C)CC3)cc1 [Example 139]
IC50 [1]: < 5 nM
IC50 [2]: < 5 nM
IC50 [3]: 100 to 1000 nM
IC50 [4]: 100 to 500 nM
Kd [5]: < 5 nM
Tau (h) wt-BTK (Act) [5]: 1.38 h
Kd [6]: < 5 nM
Tau (h) BTK C418S (Act) [6]: 1.36 h
Kd [7]: < 5 nM
Kd [8]: 10 to 50 nM and < 5 nM
residence time [9]: 2.11 h
Kd [9]: < 3 nM
IC50 [10]: < 100 nM

Nc1ncc2c3c1c(-c1ccc(C(=O)Nc4cc(C(F)(F)F)ccn4)cc1)nn3[C@@H]1CCC[C@H](C1)NC(=O)[C@H]1CN(C/C=C/2)CCN1 [Example 141]
IC50 [1]: < 5 nM
IC50 [2]: < 5 nM
IC50 [3]: < 100 nM
IC50 [4]: < 100 nM
Kd [5]: < 5 nM
Tau (h) wt-BTK (Act) [5]: >24 h
Kd [6]: < 5 nM
Tau (h) BTK C418S (Act) [6]: 4.45 h
Kd [7]: < 5 nM
Tau (h) BTK T316A (Act) [7]: 8.86 h
Kd [8]: < 2 nM
Tau (h) BTK T474I (Act) [8]: 6.21 h
residence time [9]: 4.17 h
Kd [9]: < 3 nM
IC50 [10]: < 100 nM

Nc1ncc2c3c1c(-c1ccc(C(=O)Nc4cc(C(F)(F)F)ccn4)cc1)nn3[C@@H]1CCC[C@H](C1)NC(=O)[C@@H]1CCN(C/C=C/2)C1 [Example 147]
IC50 [1]: < 5 nM
IC50 [2]: < 5 nM
IC50 [3]: < 100 nM
IC50 [4]: < 100 nM
Kd [5]: < 5 nM
Tau (h) wt-BTK (Act) [5]: 5.28 h
Kd [6]: < 5 nM
Tau (h) BTK C418S (Act) [6]: 1.73 h
Kd [7]: < 5 nM
Tau (h) BTK T316A (Act) [7]: 10.42 h
Kd [8]: < 2 nM
residence time [9]: 6.36 h
Kd [9]: < 3 nM
IC50 [10]: < 100 nM

C[C@H]1CC(=O)N[C@@H]2CCCC(C2)n2nc(-c3ccc(C(=O)Nc4cc(C(F)(F)F)ccn4)cc3)c3c(N)ncc(c32)/C=C/CCN1 [Example 150]
IC50 [1]: < 5 nM
IC50 [2]: < 5 nM
IC50 [3]: 100 to 1000 nM
IC50 [4]: 100 to 500 nM
Kd [5]: < 5 nM
Tau (h) wt-BTK (Act) [5]: 2.52 h
Kd [6]: < 5 nM
Tau (h) BTK C418S (Act) [6]: 1.51 h
Kd [7]: < 5 nM
Tau (h) BTK T316A (Act) [7]: 2.48 h
Kd [8]: < 2 nM
residence time [9]: 1.5 h
Kd [9]: < 3 nM
IC50 [10]: < 100 nM

C[C@H]1CC(=O)N[C@@H]2CCC[C@H](C2)n2nc(-c3ccc(C(=O)Nc4cc(C(F)(F)F)ccn4)cc3)c3c(N)ncc(c32)/C=C/CN1C [Example 151]
IC50 [1]: < 5 nM
IC50 [2]: < 5 nM
IC50 [3]: 100 to 1000 nM
IC50 [4]: 100 to 500 nM
Kd [5]: < 5 nM
Tau (h) wt-BTK (Act) [5]: 7.58 h
Kd [6]: < 5 nM
Tau (h) BTK C418S (Act) [6]: 8.25 h
Tau (h) BTK T316A (Act) [7]: 1.89 h
Kd [8]: < 2 nM
Tau (h) BTK T474I (Act) [8]: 0.70 h
residence time [9]: 2.11 h
Kd [9]: < 3 nM
IC50 [10]: < 100 nM

C[C@H]1CC(=O)N[C@@H]2CCC[C@H](C2)n2nc(-c3ccc(C(=O)Nc4cc(C(F)(F)F)ccn4)cc3)c3c(N)ncc(c32)/C=C/CCN1C [Example 152]
IC50 [1]: < 5 nM
IC50 [2]: < 5 nM
IC50 [3]: 100 to 1000 nM
IC50 [4]: < 100 nM
Kd [5]: < 5 nM
Tau (h) wt-BTK (Act) [5]: 2.36 h
Kd [6]: < 5 nM
Tau (h) BTK C418S (Act) [6]: 5.84 h
Kd [7]: < 5 nM
Tau (h) BTK T316A (Act) [7]: 6.08 h
Kd [8]: < 2 nM
Tau (h) BTK T474I (Act) [8]: 2.11 h
residence time [9]: 1.24 h
Kd [9]: < 3 nM
IC50 [10]: < 100 nM

C[C@@H]1CCn2nc(-c3ccc(C(=O)Nc4cc(C#N)ccn4)cc3)c3c(N)ncc(c32)/C=C/CCOCCC(=O)N1 [Example 153]
IC50 [1]: < 5 nM
IC50 [2]: < 5 nM
IC50 [3]: 100 to 1000 nM
IC50 [4]: 500 to 10000 nM
Kd [5]: < 5 nM
Tau (h) wt-BTK (Act) [5]: 1.29 h
Kd [6]: < 5 nM
Tau (h) BTK C418S (Act) [6]: 1.67 h
Kd [7]: < 5 nM
Kd [8]: < 2 nM
residence time [9]: 1.97 h
Kd [9]: < 3 nM
IC50 [10]: < 100 nM

N#Cc1ccnc(NC(=O)c2ccc(-c3nn4c5c(cnc(N)c35)/C=C/CCOCCC(=O)N[C@@H]3CCC[C@@H]4C3)cc2)c1 [Example 155]
IC50 [1]: < 5 nM
IC50 [2]: < 5 nM
IC50 [3]: < 100 nM
IC50 [4]: < 100 nM
Kd [5]: < 5 nM
Tau (h) wt-BTK (Act) [5]: 9.97 h
Kd [6]: < 5 nM
Tau (h) BTK C418S (Act) [6]: 2.21 h
Kd [7]: < 5 nM
Tau (h) BTK T316A (Act) [7]: 2.91 h
Kd [8]: < 2 nM
Tau (h) BTK T474I (Act) [8]: 2.63 h
residence time [9]: 3.8 h
Kd [9]: < 3 nM
IC50 [10]: < 100 nM
